# In patent US20110053773A1, “METHODS OF IMPROVING NUTRITIONAL VALUE OF PLANTS” (UNIVERSITY OF TENNESSEE RESEARCH FOUNDATION, priority 2009, published 2011):
# Key:
# basil 'Genovese' = assay: Visual injury of basil after insecticide, fungicide, PGRs, safeners (Example 4)
# Summary of the method: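 Plants received postemergence sprays of one insecticide, one fungicide, two PGRs or two safeners in the greenhouse. About 4 weeks later they were harvested, and replicates were pooled for laboratory content analysis. Injury was rated visually on a 0–100% scale.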
# kale 'Red Russian' = assay: Content analysis of kale: protein, amino acids, fiber, fatty acids, minerals (Example 4, Tables 12-14); type: in vivo; details: 28 DA-A
# Procedure: Greenhouse and laboratory studies were conducted to ascertain the tolerance and nutritional quality differences following postemergence applications of the insecticide chlorpyrifos, the fungicide chlorothalonil, the PGRs mepiquat-chloride and paclobutrazol, and the safeners napthalic anhydride and isoxadifen-ethyl on kale ‘Red Russian’ and basil ‘Genovese’. Visual injury was rated based on general phytotoxicity, chlorosis, and visual stunting and each measurement was based on a percent scale from 0 to 100 where 0 equals no visual response and 100 equals complete plant death. Kale and basil were both harvested approximately 4 weeks after treatments and plants were pooled over replicates for content analysis of crude protein, crude amino acid content, acid detergent fiber, neutral detergent fiber, total fatty acids, and/or key mineral content (including Na, Ca, P, Mg, K, Fe, Mn, Zn, and Cu). In addition, the amounts of key individual amino acids (aspartic acid, threonine, glutamic acid, proline, glycine, cysteine, valine, leucine, isoleucine, methionine, and lysine) and composite classifications of fatty acid (saturated fatty acids, monounsaturated fatty acids, polyunsaturated fatty acids) were also analyzed from these sub-samples for kale (Tables 10-14).
# [1] = 7 DA-A, rates g ai/ha: chlropyrifos 1120, chlorothalonil 2630, paclobutrazol 3.23, mepiquat-chloride 12.3, Isoxadifen 8, Napthalic anhydride 264, + NIS 0.25 % v/v
# [2] = 7 DA-A, rates g ai/ha: chlropyrifos 3370, chlorothalonil 7900, paclobutrazol 9.7, mepiquat-chloride 37, Isoxadifen 16, Napthalic anhydride 527, + NIS 0.25 % v/v
# [3] = 14 DA-A, rates g ai/ha: chlropyrifos 1120, chlorothalonil 2630, paclobutrazol 3.23, mepiquat-chloride 12.3, Isoxadifen 8, Napthalic anhydride 264, + NIS 0.25 % v/v
# [4] = 14 DA-A, rates g ai/ha: chlropyrifos 3370, chlorothalonil 7900, paclobutrazol 9.7, mepiquat-chloride 37, Isoxadifen 16, Napthalic anhydride 527, + NIS 0.25 % v/v
# [5] = 28 DA-A, rates g ai/ha: chlropyrifos 1120, chlorothalonil 2630, paclobutrazol 3.23, mepiquat-chloride 12.3, Isoxadifen 8, Napthalic anhydride 264, + NIS 0.25 % v/v
# [6] = 28 DA-A, rates g ai/ha: chlropyrifos 3370, chlorothalonil 7900, paclobutrazol 9.7, mepiquat-chloride 37, Isoxadifen 16, Napthalic anhydride 527, + NIS 0.25 % v/v
# [7] = first-listed rate g ai/ha: chlropyrifos ###, chlorothalonil ###, paclobutrazol 3.2, mepiquat-chloride 12, + NIS 0.3 % v/v
# [8] = rates g ai/ha: chlropyrifos 1120, chlorothalonil 2630, paclobutrazol 3.23, mepiquat-chloride 12.3, + NIS 0.25 % v/v
# [9] = rates g ai/ha: chlropyrifos 3370, chlorothalonil 7900, paclobutrazol 9.7, mepiquat-chloride 37, + NIS 0.25 % v/v
# [10] = second-listed rate g ai/ha: chlropyrifos ###, chlorothalonil ###, paclobutrazol 9.7, mepiquat-chloride 37, + NIS 0.3 % v/v
smiles,measurement,setting,value
CC(C)(C)[C@@H](O)[C@@H](Cc1ccc(Cl)cc1)n1cncn1 (racemic) [paclobutrazol],Phytotoxicity Chlorosis,basil 'Genovese'; [1],8%
same,Phytotoxicity General,basil 'Genovese'; [1],3%
same,Phytotoxicity Stunting,basil 'Genovese'; [1],3%
same,Phytotoxicity Chlorosis,basil 'Genovese'; [2],5%
same,Phytotoxicity General,basil 'Genovese'; [2],3%
same,Phytotoxicity Stunting,basil 'Genovese'; [2],2%
same,Phytotoxicity Chlorosis,basil 'Genovese'; [3],5%
same,Phytotoxicity General,basil 'Genovese'; [3],0%
same,Phytotoxicity Stunting,basil 'Genovese'; [3],7%
same,Phytotoxicity Chlorosis,basil 'Genovese'; [4],7%
same,Phytotoxicity General,basil 'Genovese'; [4],0%
same,Phytotoxicity Stunting,basil 'Genovese'; [4],5%
same,Phytotoxicity Chlorosis,basil 'Genovese'; [5],3%
same,Phytotoxicity General,basil 'Genovese'; [5],5%
same,Phytotoxicity Stunting,basil 'Genovese'; [5],8%
same,Phytotoxicity Chlorosis,basil 'Genovese'; [6],7%
same,Phytotoxicity General,basil 'Genovese'; [6],2%
same,Phytotoxicity Stunting,basil 'Genovese'; [6],2%
same,"Alanine, Percent Increase over the Untreated Check (on a % dry matter basis)",kale 'Red Russian'; [7],−9 % check
same,"Aspartic acid, Percent Increase over the Untreated Check (on a % dry matter basis)",kale 'Red Russian'; [7],−9 % check
same,"Cysteine, Percent Increase over the Untreated Check (on a % dry matter basis)",kale 'Red Russian'; [7],−6 % check
same,"Glutamic acid, Percent Increase over the Untreated Check (on a % dry matter basis)",kale 'Red Russian'; [7],−5 % check
same,"Glycine, Percent Increase over the Untreated Check (on a % dry matter basis)",kale 'Red Russian'; [7],−12 % check
same,"Iso-leucine, Percent Increase over the Untreated Check (on a % dry matter basis)",kale 'Red Russian'; [7],−6 % check
same,"Leucine, Percent Increase over the Untreated Check (on a % dry matter basis)",kale 'Red Russian'; [7],−7 % check
same,"Lysine, Percent Increase over the Untreated Check (on a % dry matter basis)",kale 'Red Russian'; [7],−8 % check
same,"Methionine, Percent Increase over the Untreated Check (on a % dry matter basis)",kale 'Red Russian'; [7],−13 % check
same,"Proline, Percent Increase over the Untreated Check (on a % dry matter basis)",kale 'Red Russian'; [7],−4 % check
same,"Threonine, Percent Increase over the Untreated Check (on a % dry matter basis)",kale 'Red Russian'; [7],−9 % check
same,"Total Amino acids, Percent Increase over the Untreated Check (on a % dry matter basis)",kale 'Red Russian'; [7],−8 % check
same,"Total Protein, Percent Increase over the Untreated Check (on a % dry matter basis)",kale 'Red Russian'; [7],0 % check
same,"Valine, Percent Increase over the Untreated Check (on a % dry matter basis)",kale 'Red Russian'; [7],−6 % check
same,"ADF, Percent Increase Over the Untreated Check (on a % dry matter basis)",kale 'Red Russian'; [8],11 % check
same,"Calcium, Percent Increase Over the Untreated Check (on a % dry matter basis)",kale 'Red Russian'; [8],11 % check
same,"Copper, Percent Increase Over the Untreated Check (on a % dry matter basis)",kale 'Red Russian'; [8],12 % check
same,"Iron, Percent Increase Over the Untreated Check (on a % dry matter basis)",kale 'Red Russian'; [8],−3 % check
same,"Magnesium, Percent Increase Over the Untreated Check (on a % dry matter basis)",kale 'Red Russian'; [8],8 % check
same,"Manganese, Percent Increase Over the Untreated Check (on a % dry matter basis)",kale 'Red Russian'; [8],10 % check
same,"NDF, Percent Increase Over the Untreated Check (on a % dry matter basis)",kale 'Red Russian'; [8],−3 % check
same,"Phosphorous, Percent Increase Over the Untreated Check (on a % dry matter basis)",kale 'Red Russian'; [8],6 % check
same,"Potassium, Percent Increase Over the Untreated Check (on a % dry matter basis)",kale 'Red Russian'; [8],3 % check
same,"Sodium, Percent Increase Over the Untreated Check (on a % dry matter basis)",kale 'Red Russian'; [8],−1 % check
same,"Zinc, Percent Increase Over the Untreated Check (on a % dry matter basis)",kale 'Red Russian'; [8],11 % check
same,"ADF, Percent Increase Over the Untreated Check (on a % dry matter basis)",kale 'Red Russian'; [9],−1 % check
same,"Calcium, Percent Increase Over the Untreated Check (on a % dry matter basis)",kale 'Red Russian'; [9],22 % check
same,"Copper, Percent Increase Over the Untreated Check (on a % dry matter basis)",kale 'Red Russian'; [9],28 % check
same,"Iron, Percent Increase Over the Untreated Check (on a % dry matter basis)",kale 'Red Russian'; [9],−5 % check
same,"Magnesium, Percent Increase Over the Untreated Check (on a % dry matter basis)",kale 'Red Russian'; [9],11 % check
same,"Manganese, Percent Increase Over the Untreated Check (on a % dry matter basis)",kale 'Red Russian'; [9],20 % check
same,"NDF, Percent Increase Over the Untreated Check (on a % dry matter basis)",kale 'Red Russian'; [9],−8 % check
same,"Phosphorous, Percent Increase Over the Untreated Check (on a % dry matter basis)",kale 'Red Russian'; [9],12 % check
same,"Potassium, Percent Increase Over the Untreated Check (on a % dry matter basis)",kale 'Red Russian'; [9],15 % check
same,"Sodium, Percent Increase Over the Untreated Check (on a % dry matter basis)",kale 'Red Russian'; [9],11 % check
same,"Zinc, Percent Increase Over the Untreated Check (on a % dry matter basis)",kale 'Red Russian'; [9],13 % check
same,"Alanine, Percent Increase over the Untreated Check (on a % dry matter basis)",kale 'Red Russian'; [10],4 % check
same,"Aspartic acid, Percent Increase over the Untreated Check (on a % dry matter basis)",kale 'Red Russian'; [10],12 % check
same,"Cysteine, Percent Increase over the Untreated Check (on a % dry matter basis)",kale 'Red Russian'; [10],6 % check
same,"Glutamic acid, Percent Increase over the Untreated Check (on a % dry matter basis)",kale 'Red Russian'; [10],16 % check
